Results as given in article PMC3412845, “Waking Action of Ursodeoxycholic Acid (UDCA) Involves Histamine and GABAA Receptor Block” (PLoS ONE, 2012).

What was measured:
TMN neurons = assay: Firing of TMN neurons recorded in hypothalamic slices; type: cell-based, mouse; conditions: UDCA 100 µM, n = 10
Procedure: Recordings from histaminergic neurons in male Wistar rat (22–26 day old) or 30–60 day old mouse (SV129, histidine decarboxylase deficient HDC−/− or their wild type littermates) hypothalamic slices were performed as previously described. Slices were obtained between 9 and 11 a.m. In the beginning of whole-cell voltage clamp recordings TMN neurons were identified with the help of DIC microscopy and electrophysiological criteria as previously described. Inhibitory postsynaptic currents (IPSCs) were evoked by local stimulation through a bipolar stainless-steel stimulating electrode (50 µm; WPI, UK). The stimulation of axonal endings coming to TMN from ventrolateral preoptic area (VLPO) was done as described in [22]. […] Individual neurons were separated by vibrodissociation after brief preincubation with papain from the hypothalamic slices of mice or rats and identified as TMN neurons according to their size and shape. Identification was confirmed post hoc with the single-cell RT-PCR (all data presented in the manuscript were obtained from histidine decarboxylase-expressing neurons), [40]. TMN neurons from HDC−/− mice were identified by the expression of peripherin [16]. […] Membrane potentials were not corrected for liquid junction potential (5.6 mV, calculated with LJPCalc, Barry, 1994). […]

[1] = system: isolated TMN neurons (sIPSCs); assay: sIPSCs in acutely isolated and cultured neurons; type: cell-based
Procedure: (§1) Recordings from histaminergic neurons in male Wistar rat (22–26 day old) or 30–60 day old mouse (SV129, histidine decarboxylase deficient HDC−/− or their wild type littermates) hypothalamic slices were performed as previously described. Slices were obtained between 9 and 11 a.m. In the beginning of whole-cell voltage clamp recordings TMN neurons were identified with the help of DIC microscopy and electrophysiological criteria as previously described. Inhibitory postsynaptic currents (IPSCs) were evoked by local stimulation through a bipolar stainless-steel stimulating electrode (50 µm; WPI, UK). The stimulation of axonal endings coming to TMN from ventrolateral preoptic area (VLPO) was done as described in [22]. […] Individual neurons were separated by vibrodissociation after brief preincubation with papain from the hypothalamic slices of mice or rats and identified as TMN neurons according to their size and shape. Identification was confirmed post hoc with the single-cell RT-PCR (all data presented in the manuscript were obtained from histidine decarboxylase-expressing neurons), [40]. TMN neurons from HDC−/− mice were identified by the expression of peripherin [16]. Whole-cell voltage-clamp recordings from isolated neurons were done with an EPC-9 amplifier and TIDA for Windows (HEKA, Lambrecht, Germany) at room temperature. Membrane potentials were not corrected for liquid junction potential (5.6 mV, calculated with LJPCalc, Barry, 1994). The intracellular solution was composed of (in mM) 140 KCl, 2 MgCl2, 0.5 CaCl2, 5 EGTA, 2 ATP and 10 HEPES (pH 7.2 adjusted with NaOH). A fast perfusion technique was used for application of ligands and modulators of fast ionotropic receptors, [41]. […] EC50 is the ligand concentration producing a half-maximal response, [ligand] is ligand concentration, and n is the Hill slope. Hill coefficients were obtained from the slope of the log/log plot of the dose-response curves. […] Steady-state amplitudes of the responses were used for the construction of dose-response plots if not mentioned otherwise.

native GABAA receptors = assay: GABA-evoked whole-cell currents in acutely isolated TMN neurons (wild type); type: cell-based, mouse
Procedure: as §1

NMDA receptors = assay: NMDA-evoked currents in isolated neurons; type: cell-based
Procedure: Recordings from histaminergic neurons in male Wistar rat (22–26 day old) or 30–60 day old mouse (SV129, histidine decarboxylase deficient HDC−/− or their wild type littermates) hypothalamic slices were performed as previously described. Slices were obtained between 9 and 11 a.m. In the beginning of whole-cell voltage clamp recordings TMN neurons were identified with the help of DIC microscopy and electrophysiological criteria as previously described. Inhibitory postsynaptic currents (IPSCs) were evoked by local stimulation through a bipolar stainless-steel stimulating electrode (50 µm; WPI, UK). The stimulation of axonal endings coming to TMN from ventrolateral preoptic area (VLPO) was done as described in [22]. Visual identification of histaminergic neurons recorded in cell-attached configuration (see [16]) was confirmed by the significant reduction of firing rate by the histamine 3 (H3) receptor agonist R-α-methylhistamine (0.2 µM), which was performed at the end of each experiment. Individual neurons were separated by vibrodissociation after brief preincubation with papain from the hypothalamic slices of mice or rats and identified as TMN neurons according to their size and shape. Identification was confirmed post hoc with the single-cell RT-PCR (all data presented in the manuscript were obtained from histidine decarboxylase-expressing neurons), [40]. TMN neurons from HDC−/− mice were identified by the expression of peripherin [16]. Whole-cell voltage-clamp recordings from isolated neurons were done with an EPC-9 amplifier and TIDA for Windows (HEKA, Lambrecht, Germany) at room temperature. Membrane potentials were not corrected for liquid junction potential (5.6 mV, calculated with LJPCalc, Barry, 1994). The intracellular solution was composed of (in mM) 140 KCl, 2 MgCl2, 0.5 CaCl2, 5 EGTA, 2 ATP and 10 HEPES (pH 7.2 adjusted with NaOH). A fast perfusion technique was used for application of ligands and modulators of fast ionotropic receptors, [41]. […] EC50 is the ligand concentration producing a half-maximal response, [ligand] is ligand concentration, and n is the Hill slope. Hill coefficients were obtained from the slope of the log/log plot of the dose-response curves. […] Steady-state amplitudes of the responses were used for the construction of dose-response plots if not mentioned otherwise.
For the testing of UDCA action at NMDA receptors a maximal 0.2 mM concentration of agonist was used. Recordings were done in Mg^2+ -free solution in the presence of 10 µM of glycine. NMDA-currents were abolished by the NMDA receptor antagonist D-AP5 (100 µM).

β3γ2L GABAA receptors = biological target: T1, β3γ2L GABAA receptors (UniProt P22723+P28472); assay: Patch-clamp of recombinant β3γ2L receptors in HEK293 cells, histamine-evoked currents; type: cell-based, human β3, mouse γ2L; conditions: histamine 5 mM
T1 construct: expressed in transfected cells; host or cells: HEK293
Procedure: (§2) HEK 293 cells were obtained from DSM (Deutsche Sammlung von Mikroorganismen und Zellkulturen GmbH, DSM, Braunschweig). They were grown and maintained according to published standard protocols. Briefly, cells were grown in minimal essential medium supplemented with 10% fetal bovine serum, 100units/ml penicillin and streptomycin and 2 mM L-glutamine and splitted once per week. Semiconfluent cells were transfected on the third day after splitting with the help of Lipofectamine 2000 (Invitrogen), recordings were done 48–72 hrs after transfection.
(§3) The GABAAR subunit cDNAs, generously donated by G.Gisselmann (rat α1, mouse γ2L, rat β1, β2 and human β3 [26]) and J.H. Steinbach (rat α1V256S [28] and rat α1Q241L [44]), were subcloned into pcDNA3 (Invitrogen, Karlsruhe, Germany) and applied in a ratio 1∶1∶1 for the α1βxγ2L receptor and 1∶1 for α1β3 or β3γ2L receptors. […] For each receptor type patch clamp recordings were obtained from at least three separate transfections. Whole-cell patch clamp recordings were done in a similar extracellular solution as for the native cells (see above) except that the concentration of MgCl2 was reduced to 1.2 mM. Intracellular electrodes contained 140 mM CsCl (instead of KCl), pH adjusted with CsOH. The voltage was held at −40 mV.

α1β1γ2L GABAA receptors = biological target: T2, α1β1γ2L GABAA receptors (UniProt P15431+P22723+P62813); assay: Patch-clamp of recombinant α1β1γ2L GABAAR in HEK293 cells; type: cell-based, rat α1, rat β1, mouse γ2L
T2 construct: expressed in transfected cells; host or cells: HEK293
Procedure: as §2, §3

[2] = biological target: T3, α1Q241L mutant α1β2γ2L GABAA receptors (UniProt P22723+P62813+P63138, Q268L); assay: Patch-clamp of mutant α1Q241L-containing α1β2γ2L GABAAR in HEK293 cells; type: cell-based, rat α1Q241L, rat β2, mouse γ2L; conditions: UDCA 100 µM, 500 µM GABA, n = 5
T3 construct: expressed in transfected cells; host or cells: HEK293
Procedure: as §2, §3

T1 sequence (P28472 26-473): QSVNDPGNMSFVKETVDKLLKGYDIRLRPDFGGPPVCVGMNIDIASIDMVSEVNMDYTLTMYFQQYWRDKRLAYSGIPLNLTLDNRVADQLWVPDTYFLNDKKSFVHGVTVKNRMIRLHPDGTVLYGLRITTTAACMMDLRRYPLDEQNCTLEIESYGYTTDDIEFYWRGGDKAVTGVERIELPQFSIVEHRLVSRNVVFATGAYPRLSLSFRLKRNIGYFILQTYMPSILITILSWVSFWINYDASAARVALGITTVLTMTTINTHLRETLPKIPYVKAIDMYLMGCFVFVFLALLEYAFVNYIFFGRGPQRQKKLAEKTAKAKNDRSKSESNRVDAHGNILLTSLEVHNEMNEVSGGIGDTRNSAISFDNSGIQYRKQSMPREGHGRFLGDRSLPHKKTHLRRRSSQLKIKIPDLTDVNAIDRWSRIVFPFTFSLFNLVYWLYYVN
T1 sequence (P22723 39-474): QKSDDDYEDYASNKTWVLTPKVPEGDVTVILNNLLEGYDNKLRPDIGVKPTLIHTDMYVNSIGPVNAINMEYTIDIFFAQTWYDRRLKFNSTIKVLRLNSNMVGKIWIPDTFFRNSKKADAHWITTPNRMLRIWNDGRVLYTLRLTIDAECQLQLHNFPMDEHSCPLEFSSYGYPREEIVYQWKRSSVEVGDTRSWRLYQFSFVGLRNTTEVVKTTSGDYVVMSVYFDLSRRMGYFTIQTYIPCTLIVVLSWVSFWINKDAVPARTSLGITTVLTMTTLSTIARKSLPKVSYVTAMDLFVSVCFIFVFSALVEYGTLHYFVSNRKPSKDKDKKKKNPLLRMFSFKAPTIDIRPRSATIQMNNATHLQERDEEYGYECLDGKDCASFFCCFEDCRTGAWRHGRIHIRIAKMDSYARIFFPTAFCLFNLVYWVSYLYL
T3 sequence (P62813 28-455 Q268L): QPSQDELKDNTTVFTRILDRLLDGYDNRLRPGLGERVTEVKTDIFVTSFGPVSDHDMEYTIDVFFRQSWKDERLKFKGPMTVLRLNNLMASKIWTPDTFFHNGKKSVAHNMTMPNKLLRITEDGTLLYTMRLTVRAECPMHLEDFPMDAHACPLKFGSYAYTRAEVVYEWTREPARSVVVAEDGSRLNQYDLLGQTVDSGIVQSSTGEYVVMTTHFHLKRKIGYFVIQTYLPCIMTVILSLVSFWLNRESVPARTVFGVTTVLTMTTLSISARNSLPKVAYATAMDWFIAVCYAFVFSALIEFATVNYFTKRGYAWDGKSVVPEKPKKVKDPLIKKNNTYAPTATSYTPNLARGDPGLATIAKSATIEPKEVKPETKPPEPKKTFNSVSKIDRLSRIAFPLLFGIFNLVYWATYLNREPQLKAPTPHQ
T3 sequence (P63138 25-474 limits assumed): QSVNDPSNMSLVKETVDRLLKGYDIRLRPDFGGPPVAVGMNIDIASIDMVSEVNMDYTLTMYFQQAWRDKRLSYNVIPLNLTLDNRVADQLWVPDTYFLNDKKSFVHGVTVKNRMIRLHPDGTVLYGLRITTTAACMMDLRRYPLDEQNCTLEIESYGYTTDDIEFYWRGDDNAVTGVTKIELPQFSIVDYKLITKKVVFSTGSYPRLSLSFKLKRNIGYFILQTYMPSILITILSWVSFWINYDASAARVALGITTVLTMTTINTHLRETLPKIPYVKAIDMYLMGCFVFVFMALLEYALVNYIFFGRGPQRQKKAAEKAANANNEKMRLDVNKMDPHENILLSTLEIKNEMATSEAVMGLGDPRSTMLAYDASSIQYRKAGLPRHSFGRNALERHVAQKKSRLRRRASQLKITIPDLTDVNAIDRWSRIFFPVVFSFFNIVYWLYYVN
T3 sequence (P22723 39-474): as the sequence (P22723 39-474) above
T2 sequence (P62813 28-455): as the sequence (P62813 28-455 Q268L) above, with L241Q counted along it
T2 sequence (P15431 26-474): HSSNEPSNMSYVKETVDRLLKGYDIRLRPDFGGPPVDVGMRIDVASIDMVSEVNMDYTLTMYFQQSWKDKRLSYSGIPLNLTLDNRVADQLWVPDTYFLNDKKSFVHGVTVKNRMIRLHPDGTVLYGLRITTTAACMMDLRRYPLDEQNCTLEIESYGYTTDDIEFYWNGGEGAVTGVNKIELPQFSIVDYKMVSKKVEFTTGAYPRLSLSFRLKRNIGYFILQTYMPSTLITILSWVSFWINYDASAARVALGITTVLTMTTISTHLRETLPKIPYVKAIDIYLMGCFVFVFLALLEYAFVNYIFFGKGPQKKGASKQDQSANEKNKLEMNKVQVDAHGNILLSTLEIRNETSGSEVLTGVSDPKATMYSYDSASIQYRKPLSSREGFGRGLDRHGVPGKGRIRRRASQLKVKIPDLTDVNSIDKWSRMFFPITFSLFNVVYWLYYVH
T2 sequence (P22723 39-474): as the sequence (P22723 39-474) above

## C[C@H](CCC(=O)O)[C@H]1CC[C@H]2[C@@H]3[C@@H](O)C[C@@H]4C[C@H](O)CC[C@]4(C)[C@H]3CC[C@]12C [UDCA, ursodeoxycholic acid]
TMN neurons
  firing at the end of UDCA application: 86±5 % of control
[1]; 10 µM
  decay kinetics of sIPSCs: significantly accelerated the decay kinetics of sIPSCs in some
[1]; 30 µM
  decay kinetics of sIPSCs: significantly reducing decay kinetics in all investigated neurons
Native GABAA receptors
  deactivation time constant (τoff): prolonged
  peak current amplitude of maximal GABA-mediated whole-cell currents: not affected
  use dependence of block of GABA currents: not use dependent
Native GABAA receptors; GABA 10 µM, 1 s
  reversibility of block of GABA currents: fully reversible
Native GABAA receptors; acutely isolated histaminergic neurons
  concentration at which inhibition of GABA-evoked currents and sIPSCs starts: 10 µM
Native GABAA receptors; decrease of fast decay time constant and steady-state/peak ratio
  macroscopic apparent desensitization of responses to saturating GABA: concentration-dependently enhanced
Native GABAA receptors; native receptors, steady-state currents, read-out: IC50 of inhibition of GABA-evoked currents
  IC50: 92 µM
NMDA receptors
  concentration above which block of NMDA receptors starts: higher than 100 µM
NMDA receptors; 100 µM
  NMDA-receptor mediated currents: did not affect
NMDA receptors; read-out: IC50 of NMDA receptor block, n = 4, NMDA 0.2 mM, Mg2+-free, 10 µM glycine
  IC50: 540 ± 40 µM
β3γ2L GABAA receptors
  Hill coefficient nH of UDCA block: 0.62
β3γ2L GABAA receptors; read-out: IC50 of block of histamine-evoked currents
  IC50: 232 ± 66 µM
α1β1γ2L GABAA receptors
  IC50: 96 ± 17 µM
[2]
  maximal steady-state GABA current: 54±2 % of control
